Source: patent US20100298141A1, “SUBSTITUTED PYRIDINE N-OXIDE HERBICIDES” (E. I. DU PONT DE NEMOURS AND COMPANY, priority 2007, published 2010)

Columns and labels:
bermudagrass = assay: Test C pre-/postemergence test; assay type: in vivo, Cynodon dactylon; details: for Plant response rating, Bermudagrass: 31 g ai/ha
In short: (§1)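 Seeds were planted and treated preemergence with test chemical in a non-phytotoxic solvent mixture containing surfactant. Postemergence applications of the same formulation went onto plants 2 to 18 cm tall (1- to 4-leaf stage). A dash marks no test result.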

pigweed = assay: Test C pre-/postemergence test; assay type: in vivo, Amaranthus retroflexus; details: for Plant response rating, Pigweed: 31 g ai/ha, scale 0 to 100 (0 no effect, 100 complete control)
In short: as §1

wheat [1] = assay: Test C pre-/postemergence test; assay type: in vivo, Triticum aestivum; details: for Plant response rating, Wheat: 31 g ai/ha, scale 0 to 100 (0 no effect, 100 complete control)
In short: as §1

crabgrass = assay: Test C pre-/postemergence test; assay type: in vivo, Digitaria sanguinalis; details: for Plant response rating, Crabgrass, Large: 31 g ai/ha, scale 0 to 100 (0 no effect, 100 complete control)
In short: as §1

lambsquarters = assay: Test C pre-/postemergence test; assay type: in vivo, Chenopodium album; details: for Plant response rating, Lambsquarters: 31 g ai/ha, scale 0 to 100 (0 no effect, 100 complete control)
In short: as §1

umbrella sedge = assay: Test C flooded paddy test; assay type: in vivo, Cyperus difformis; details: Flood
In short: (§2)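 Under a constant 3 cm flood, test compounds went directly into the paddy water. Following 13 to 15 days of greenhouse growth, treated species and controls were compared by eye.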

corn = assay: Test A pre-/postemergence greenhouse test; assay type: in vivo, Zea mays; details: for Corn plant response rating: 0 to 100 scale; for Plant response rating, Corn: 0 to 100 scale where 0 is no effect and 100 is complete control
In short: (§3)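 Seeds sown in a loam soil–sand blend got a preemergence directed soil spray of compound in a non-phytotoxic solvent mixture containing surfactant. Postemergence sprays of the same formulation went at the same time onto plants 2–10 cm tall at the one- to two-leaf stage. Injury was scored visually against untreated controls after about ten days in the greenhouse.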

barnyardgrass = assay: Test A pre-/postemergence greenhouse test; assay type: in vivo, Echinochloa crus-galli; details: for Barnyardgrass plant response rating: 0 to 100 scale; for Plant response rating, Barnyardgrass: 0 to 100 scale where 0 is no effect and 100 is complete control
In short: as §3

morningglory = assay: Test A pre-/postemergence greenhouse test; assay type: in vivo, Ipomoea spp.; details: for Morningglory plant response rating: 0 to 100 scale; for Plant response rating, Morningglory: 0 to 100 scale where 0 is no effect and 100 is complete control
In short: as §3

[2] = tested on: common (oilseed) sunflower; assay: Test C pre-/postemergence test; assay type: in vivo, Helianthus annuus; details: for Plant response rating, Sunflower: 31 g ai/ha, scale 0 to 100 (0 no effect, 100 complete control)
In short: as §1

wheat [3] = assay: Test A pre-/postemergence greenhouse test; assay type: in vivo, Triticum aestivum; details: for Wheat plant response rating: 0 to 100 scale; for Plant response rating, Wheat: 0 to 100 scale where 0 is no effect and 100 is complete control
In short: as §3

Goosegrass = assay: Test C pre-/postemergence test; assay type: in vivo, Eleusin indica; details: for Plant response rating, Goosegrass: 31 g ai/ha, scale 0 to 100 (0 no effect, 100 complete control)
In short: as §1

redroot pigweed = assay: Test A pre-/postemergence greenhouse test; assay type: in vivo, Amaranthus retroflexus; details: for Pigweed plant response rating: 0 to 100 scale; for Plant response rating, Pigweed: 0 to 100 scale where 0 is no effect and 100 is complete control
In short: as §3

eastern black nightshade = assay: Test C pre-/postemergence test; assay type: in vivo, Solanum ptycanthum; details: for Plant response rating, Nightshade: 31 g ai/ha, scale 0 to 100 (0 no effect, 100 complete control)
In short: as §1

Surinam grass = assay: Test C pre-/postemergence test; assay type: in vivo, Brachiaria decumbens; details: for Plant response rating, Surinam Grass: 31 g ai/ha, scale 0 to 100 (0 no effect, 100 complete control)
In short: as §1

rice = assay: Test C flooded paddy test; assay type: in vivo, Oryza sativa; details: Flood
In short: as §2

giant foxtail = assay: Test A pre-/postemergence greenhouse test; assay type: in vivo, Setaria faberi; details: for Foxtail, Giant plant response rating: 0 to 100 scale; for Plant response rating, Foxtail, Giant: 0 to 100 scale where 0 is no effect and 100 is complete control
In short: as §3

[4] = 62 g ai/ha, Preemergence, scale 0 to 100 (0 no effect, 100 complete control)
[5] = 125 g ai/ha, preemergence, scale 0 (no effect) to 100 (complete control)
[6] = Preemergence, scale 0 to 100 (0 no effect, 100 complete control)
[7] = preemergence, 250 g ai/ha, scale 0 (no effect) to 100 (complete control)
[8] = 62 g ai/ha, Preemergence, scale 0 to 100
[9] = 31 g ai/ha, scale 0 to 100 (0 no effect, 100 complete control)
[10] = 62 g ai/ha, scale 0 to 100, 0 no effect, 100 complete control, 13 to 15 days
[11] = 125 g ai/ha, scale 0 to 100, 0 no effect, 100 complete control, 13 to 15 days
[12] = 250 g ai/ha, scale 0 to 100, 0 no effect, 100 complete control, 13 to 15 days
[13] = Postemergence, 125 g ai/ha, 0 is no effect, 100 is complete control
[14] = Postemergence, 500 g ai/ha, 0 is no effect, 100 is complete control
[15] = Preemergence, 125 g ai/ha, 0 no effect, 100 complete control

Cn1nc(C(F)(F)F)c(C[S+]([O-])c2cc(Br)cc[n+]2[O-])c1Cl (racemic) [Compound 35]
95: Plant response rating, Sedge, Umbrella (umbrella sedge; [11]) | Plant response rating, Sedge, Umbrella (umbrella sedge; [12])
55: Surinam Grass plant response rating (Surinam grass; [8])
20: Plant response rating, Rice (rice; [12])
90: Plant response rating, Bermudagrass (bermudagrass; [6]) | Plant response rating, Sedge, Umbrella (umbrella sedge; [10])
80: Plant response rating, Sedge, Umbrella (umbrella sedge; [9]) | Barnyardgrass plant response rating (barnyardgrass; [14]) | Plant response rating, Morningglory (morningglory; Preemergence, 500 g ai/ha) | Plant response rating, Goosegrass (Goosegrass; Preemergence) | Pigweed plant response rating (redroot pigweed; [14]) | Foxtail, Giant plant response rating (giant foxtail; [14])
100: Bermudagrass plant response rating (bermudagrass; [4]) | Bermudagrass plant response rating (bermudagrass; [5]) | Bermudagrass plant response rating (bermudagrass; [7]) | Pigweed plant response rating (pigweed; [8]) | Pigweed plant response rating (pigweed; [5]) | Plant response rating, Pigweed (pigweed; Preemergence) | Pigweed plant response rating (pigweed; [7]) | Crabgrass, Large plant response rating (crabgrass; [8]) | Crabgrass, Large plant response rating (crabgrass; [5]) | Crabgrass, Large plant response rating (crabgrass; [7]) | Lambsquarters plant response rating (lambsquarters; [8]) | Lambsquarters plant response rating (lambsquarters; [5]) | Plant response rating, Lambsquarters (lambsquarters; Preemergence) | Lambsquarters plant response rating (lambsquarters; [7]) | Plant response rating, Barnyardgrass (barnyardgrass; Preemergence, 500 g ai/ha) | Goosegrass plant response rating (Goosegrass; [8]) | Goosegrass plant response rating (Goosegrass; [5]) | Goosegrass plant response rating (Goosegrass; [7]) | Pigweed plant response rating (redroot pigweed; [15]) | Plant response rating, Pigweed (redroot pigweed; Preemergence, 500 g ai/ha) | Nightshade plant response rating (eastern black nightshade; [8]) | Nightshade plant response rating (eastern black nightshade; [5]) | Nightshade plant response rating (eastern black nightshade; [7]) | Surinam Grass plant response rating (Surinam grass; [5]) | Surinam Grass plant response rating (Surinam grass; [7]) | Foxtail, Giant plant response rating (giant foxtail; [15]) | Plant response rating, Foxtail, Giant (giant foxtail; Preemergence, 500 g ai/ha)
40: Morningglory plant response rating (morningglory; [13]) | Wheat plant response rating (wheat [3]; [13])
30: Corn plant response rating (corn; [14]) | Sunflower plant response rating [2, 7] | Wheat plant response rating (wheat [3]; [15]) | Plant response rating, Surinam Grass (Surinam grass; Preemergence)
50: Barnyardgrass plant response rating (barnyardgrass; [13]) | Morningglory plant response rating (morningglory; [15]) | Wheat plant response rating (wheat [3]; [14]) | Plant response rating, Wheat (wheat [3]; Preemergence, 500 g ai/ha) | Foxtail, Giant plant response rating (giant foxtail; [13])
60: Pigweed plant response rating (redroot pigweed; [13])
70: Barnyardgrass plant response rating (barnyardgrass; [15]) | Morningglory plant response rating (morningglory; [14])
0: Plant response rating, Wheat (wheat [1]; Preemergence) | Corn plant response rating (corn; [13]) | Corn plant response rating (corn; [15]) | Plant response rating, Corn (corn; Preemergence, 500 g ai/ha) | Sunflower plant response rating [2, 8] | Sunflower plant response rating [2, 5] | Plant response rating, Sunflower ([2]; Preemergence) | Plant response rating, Nightshade (eastern black nightshade; Preemergence) | Plant response rating, Rice (rice; [9]) | Plant response rating, Rice (rice; [10]) | Plant response rating, Rice (rice; [11])
25: Wheat plant response rating (wheat [1]; [8]) | Wheat plant response rating (wheat [1]; [5]) | Wheat plant response rating (wheat [1]; [7])
85: Plant response rating, Crabgrass, Large (crabgrass; Preemergence)

Cc1cc[n+]([O-])c([S+]([O-])Cc2c(C(F)(F)F)nn(C)c2OCC(F)(F)F)c1 (racemic) [Compound 30]
100: Bermudagrass plant response rating (bermudagrass; [4]) | Plant response rating, Bermudagrass (bermudagrass; [6]) | Plant response rating (0 to 100), Bermudagrass (bermudagrass; Preemergence, 250 g ai/ha) | Bermudagrass plant response rating (bermudagrass; preemergence, 125 g ai/ha, scale 0 (no effect) to 100 (complete control)) | Pigweed plant response rating (pigweed; [8]) | Plant response rating, Pigweed (pigweed; Preemergence) | Plant response rating (0 to 100), Crabgrass, Large (crabgrass; Preemergence, 250 g ai/ha) | Lambsquarters plant response rating (lambsquarters; [8]) | Plant response rating, Lambsquarters (lambsquarters; Preemergence) | Plant response rating, Sedge, Umbrella (umbrella sedge; [10]) | Plant response rating, Sedge, Umbrella (umbrella sedge; [11]) | Plant response rating, Sedge, Umbrella (umbrella sedge; [12]) | Barnyardgrass plant response rating (barnyardgrass; [15]) | Plant response rating, Barnyardgrass (barnyardgrass; Preemergence, 500 g ai/ha) | Morningglory plant response rating (morningglory; [15]) | Plant response rating, Morningglory (morningglory; Preemergence, 500 g ai/ha) | Goosegrass plant response rating (Goosegrass; [8]) | Plant response rating (0 to 100), Goosegrass (Goosegrass; Preemergence, 250 g ai/ha) | Pigweed plant response rating (redroot pigweed; [14]) | Pigweed plant response rating (redroot pigweed; [15]) | Plant response rating, Pigweed (redroot pigweed; Preemergence, 500 g ai/ha) | Nightshade plant response rating (eastern black nightshade; [8]) | Plant response rating, Nightshade (eastern black nightshade; Preemergence) | Surinam Grass plant response rating (Surinam grass; [8]) | Foxtail, Giant plant response rating (giant foxtail; [15]) | Plant response rating, Foxtail, Giant (giant foxtail; Preemergence, 500 g ai/ha)
20: Plant response rating, Rice (rice; [11])
60: Corn plant response rating (corn; [14]) | Wheat plant response rating (wheat [3]; [13]) | Plant response rating, Surinam Grass (Surinam grass; Preemergence)
98: Crabgrass, Large plant response rating (crabgrass; [8]) | Plant response rating, Crabgrass, Large (crabgrass; Preemergence) | Plant response rating, Goosegrass (Goosegrass; Preemergence)
0: Plant response rating, Wheat (wheat [1]; Preemergence) | Corn plant response rating (corn; [15]) | Plant response rating, Rice (rice; [9]) | Plant response rating, Rice (rice; [10])
40: Plant response rating, Sunflower ([2]; Preemergence)
80: Plant response rating, Sedge, Umbrella (umbrella sedge; [9]) | Wheat plant response rating (wheat [3]; [15]) | Plant response rating, Rice (rice; [12]) | Foxtail, Giant plant response rating (giant foxtail; [13])
50: Corn plant response rating (corn; [13])
90: Barnyardgrass plant response rating (barnyardgrass; [14]) | Morningglory plant response rating (morningglory; [14]) | Plant response rating, Wheat (wheat [3]; Preemergence, 500 g ai/ha) | Pigweed plant response rating (redroot pigweed; [13]) | Foxtail, Giant plant response rating (giant foxtail; [14])
70: Plant response rating, Corn (corn; Preemergence, 500 g ai/ha) | Barnyardgrass plant response rating (barnyardgrass; [13]) | Morningglory plant response rating (morningglory; [13]) | Sunflower plant response rating [2, 8] | Wheat plant response rating (wheat [3]; [14])
25: Wheat plant response rating (wheat [1]; [8])
